What was measured:
[1] = test system: biliary FC output; experiment: Biliary FC output after injection of PI or PC vesicles containing [^3H]-FC; format: in vivo, rabbit; conditions: sacrificed at 30 min
Protocol: Rabbits are injected with 40 μmol PI or PC vesicles containing 400 μCi […]. Animals are sacrificed at 30 min, and bile is aspirated from the gall bladder. In addition the livers are harvested, homogenized and tissue radioactivity determined. Sterol excretion in the faeces is measured similarly except that faecal cholesterol levels are measured over a time period of 96 hours.
Referring now to FIG. 6, there is shown the effect of PI on biliary FC output after rabbits are injected with PI or PC vesicles containing [^3H]-FC. […] Without wishing to be bound by theory, PI may enhance the clearance of cholesterol from plasma and promote its uptake and accumulation in the liver. In addition, PI injection appears to be associated with an increase output of cholesterol into bile. About 20-fold enhanced output of cholesterol into bile is observed (FIG. 6).

[2] = test system: HEPG2 cells; experiment: Cellular cholesterol uptake from PI-enriched plasma or lipoproteins; format: cell-based
Source text: Almost complete inhibition of the enzyme that produces CE parallelled major increases in the amount of this lipid in VLDL particles. […] Cholesterol transport into VLDL may instead be governed by the charge and structural characteristics of plasma lipoproteins, which may regulate interfacial interactions with specific receptors and cholesterol storage depots on cell surfaces. […] Without wishing to be limited by theory, it is considered that the enhanced uptake of cholesterol from PI-enriched HDL is not facilitated by a scavenger receptor-BI mediated pathway but is associated with a novel protein kinase C dependent uptake pathway. Therefore, it is considered that control of lipoprotein charge by the administration of charged compounds will allow for the manipulation of FC and CE influx/efflux from cell surfaces and the selective control of plasma cholesterol metabolism.

[3] = molecular target: T1, lecithin:cholesterol acyltransferase (LCAT) (Oryctolagus cuniculus, UniProt P53761); experiment: Plasma cholesterol esterification by LCAT after injection of PC or PI; format: in vivo, rabbit
T1 construct: endogenous LCAT activity is reduced to about 18% that of normal; from tissue; host or cells: plasma of PI- or PC-injected rabbits
T1 sequence (P53761 25-440): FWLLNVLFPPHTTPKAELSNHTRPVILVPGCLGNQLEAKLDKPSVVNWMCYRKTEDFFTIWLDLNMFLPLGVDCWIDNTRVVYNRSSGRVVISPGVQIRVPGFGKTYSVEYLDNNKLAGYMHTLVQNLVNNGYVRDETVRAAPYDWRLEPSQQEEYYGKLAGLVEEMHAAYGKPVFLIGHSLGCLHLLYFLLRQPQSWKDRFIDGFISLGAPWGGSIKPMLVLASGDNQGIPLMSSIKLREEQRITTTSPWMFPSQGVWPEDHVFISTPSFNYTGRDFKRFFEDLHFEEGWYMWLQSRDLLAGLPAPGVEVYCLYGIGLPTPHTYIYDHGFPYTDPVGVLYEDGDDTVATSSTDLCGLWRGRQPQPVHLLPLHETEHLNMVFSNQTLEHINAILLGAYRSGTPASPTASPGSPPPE
Protocol: Male New Zealand white rabbits (3.5-4.0 kg) are fasted for 12 hours prior to injection and remain fasted until after data for the final time point is taken. Rabbits have free access to water during this time. A catheter is inserted into the marginal ear vein and blood samples are collected into tubes containing 7.5% (K3) EDTA solution at the desired time points. A pre-injection blood sample is taken and the vesicle solution of either PI (n=4), or PC (n=2) or saline (n=1) is injected into the marginal ear vein. A sample of blood is removed at 10, 30 min, 1, 3, 6 and 24 h after the injection. All blood samples are placed on ice and then centrifuged at 3000 rpm for 15 min at 4° C. to separate the plasma. In order to ensure that lecithin:cholesterol acyl transferase (LCAT) is inhibited in the stored plasma, iodoacetamide (150 mM) is added to plasma samples as taught by Guerin et al. (1994). The effect of PI on LCAT activity is examined using plasma samples that are not treated with iodoacetamide. 400 μL aliquots of plasma for each time point are incubated for 30 min with 10 μCi of [^3H]-FC on filter paper discs (Dobiasova et al., 1991) at 37° C. and the reaction is terminated with the addition of 2 mL ethanol. Reaction products are extracted in hexane and the amount of [^3H] associated with CE and FC is determined by thin layer chromatography. […] However, endogenous LCAT activity is reduced to about 18% that of normal (PC injected control) after about 10 min post injection of PI. Also, PI injection reduces the fractional rate of cholesterol esterification from about 45% to about 8%, of initial values, per hour. […] To investigate the effect of PI on the production and transport of CE in the plasma, the amount of radioactive CE was measured at each time point (data not shown). […] Rather it appears that PI may modify intravascular cholesterol levels by mobilizing a cellular cholesterol pool.

[4] = test system: cytomegalovirus (CMV); experiment: Clearance of cytomegalovirus from the plasma of a rabbit; format: in vivo; conditions: 36 mg vesicles; blood sample 10 minutes post injection
Protocol: Rabbits were injected with 8×10^10 cytomegalovirus (CMV) particles and then with 36 mg of either uncharged vesicles, phosphatidylcholine (PC), or anionic vesicles, phosphatidylinositol (PI). Blood samples were taken at specific intervals and the amount of virus in the blood samples was determined by immunometric analysis.

[5] = test system: lipoprotein CE and FC in whole blood (red blood cells); experiment: Incubation of whole blood with PC or PI vesicles: lipoprotein CE and FC; format: cell-based, human
Protocol: Referring now to FIG. 4, there is graphically depicted the effect of PI or PC vesicles on lipoprotein CE and FC. Incubation of whole blood with PC vesicles results in a 60% increase in the CE content of the lipoproteins, while FC content is reduced by about 10%. […] Negatively charged phospholipids appeared to promote a reciprocal exchange of CE for FC between red blood cells and the lipoprotein particles. […] It has previously been taught that red blood cells cannot store CE and therefore utilize a membrane-bound CE hydrolase to maintain membrane FC levels. Without wishing to be bound by theory, the results therefore indicate that PI stimulates the degradation of lipoprotein CE.

[6] = test system: cholesterol associated with HDL, LDL and VLDL; experiment: Incubation of plasma with PI: lipoprotein cholesterol levels; format: biochemical, human; conditions: added to blood plasma of fasted normolipidemic subject
Protocol: Referring now to FIG. 2, there is graphically depicted the effect of incubations with PI on the amount of cholesterol associated with HDL (high density lipoprotein), LDL (low density lipoprotein) and VLDL (very low density lipoproteins) following isolation of lipoproteins from plasma of fasted normolipidemic subjects. […] This appears due to the electrostatic effects, that increased lipoprotein PI concentrations have on cholesteryl ester transfer protein. Previous work has shown that this protein controls interlipoprotein cholesterol transfers and is affected by lipoprotein charge (Lagrost 1997).

CCCCCCCC/C=C\CCCCCCCC(=O)O[C@H](COC(=O)CCCCCCCCCCCCCCC)COP(=O)(O)O[C@@H]1[C@H](O)[C@H](O)[C@@H](O)[C@H](O)[C@H]1O [PI, 1-palmitoyl-2-oleoyl phosphatidylinositol]
[^3H]-FC in plasma and liver in comparison to PC [1]: reduction of [^3H]-FC in plasma, and an elevation of [^3H]-FC in the liver | enhanced output of cholesterol into bile ([1]; in comparison to PC): About 20 fold | effect on cellular cholesterol uptake, PI enrichment of LDL [2]: does not | effect on cellular cholesterol uptake, PI-enrichment of plasma or HDL [2]: stimulates cellular cholesterol uptake | endogenous LCAT activity, of normal (PC injected control) ([3]; about 10 min post injection): about 18% | LCAT activity returned to, of normal ([3]; after a period of time following vesicle injection): about 75% | effect on LCAT activity / cholesteryl esterification ([3]; after injection of vesicles): almost completely inhibits | less [3H]-CE in plasma than in the control ([3]; initial time points, vs PC injected rabbit): 85% | fractional rate of cholesterol esterification ([3]; of initial values, per hour, reduced from about 45%): about 8% | increased rate of clearance of the CMV injectate relative to PC [4]: 1.7 fold | increase of lipoprotein FC levels [5]: about 40% | reduction of lipoprotein CE [5]: about 40% | effect on cholesterol in LDL, VLDL and HDL [6]: reduction of cholesterol in LDL and VLDL and increase in HDL cholesterol levels

— patent US7390783B2, “Charged phospholipid compositions and methods for their use” (Ottawa Heart Institute Research Corporation, priority 2000, dated 2008)
